# Test results as given in publication PMC10906223 (JCI Insight, 2024).
# Values joined by “and” are separate entries in the source; they are usually repeats but may differ in a detail not shown here. Identical values can stand only once.
# Tests used:
# [1] = system: dispersed islet cells of donors with T1D; assay: Insulin secretion from dispersed islet cells of donors with T1D; assay type: cell-based, human; settings: for Secretion of insulin: dispersed islet cells, T1D donors, one value per donor, Figure 2J;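 for Secretion of insulin: insulin concentration in collected medium by Lumit immunoassay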
# Method: Pancreata of nondiabetic C57BL/6J mice were digested using collagenase P (Roche Diagnostics, catalog 11213873001), and islets were manually picked up using a stereomicroscope (ZEISS Stemi 305). […] Isolated mouse islets or provided human islets were dispersed as described ([28]). Briefly, 100–120 islets were washed 2 times using modified HBSS, then dispersed in 600 μL Accutase (Innovative Cell Technologies, catalog AT-104) by gently pipetting up and down for 7 minutes at 37°C. […] Following refreshing of KRBH, cells were dispensed in 8 microfuge tubes (2,000 cells/tube) and treated with WCDD301, preclustered Ephrin-A5 Fc, or preclustered Fc in the presence or absence of the competitive inhibitor of EphA4 receptor, rhyncophylline ([60]) (MilliporeSigma, catalog SML2345). In the presence or absence of these effectors, secretion assay was performed sequentially as shown in Supplemental Table 5. […] Preclustering of Ephrin-A5 Fc was done by mixing Ephrin-A5 Fc or Fc alone (BioLegend, catalog 790102) with anti-Fc antibody (Invitrogen, catalog A16086) (1:10 molar ratio) 20 minutes before treatment ([62]). […] Shedding of cleaved EphA4 was measured from the cell culture medium. Experiments were performed by dispersion of 200 islets, and EphA4 levels in media were measured by EphA4 ELISA (ABclonal, catalog RK06572).
# (§1) The Integrated Islet Distribution Program provided us human donor islets with their characteristics (Supplemental Table 6). Islets were centrifuged at 500g for 3 minutes, resuspended in CMRL 1066 medium (Gibco, catalog 1150-037) containing 11 mM glucose, and rested in an incubator overnight.
# (§2) For the hormone secretion assay, islets or dispersed islet cells were adapted in KRBH buffer containing 11 mM glucose for 1 hour. Then, after 2 washes in HBSS containing 11 mM glucose, islets or cells were treated in the following sequential order in the presence or absence of WCDD301: incubation in KRBH (1 mM glucose, 30 minutes) followed by medium collection, incubation in KRBH (11 mM glucose, 30 minutes) followed by medium collection.
# [2] = system: primary mouse hepatocytes; assay: Glucose output from primary mouse hepatocytes; assay type: cell-based
# Method: Primary hepatocyte culture was performed following previous publications ([63], [64]). Briefly, livers were extracted from C57BL/6J (n = 5), rinsed in HBSS, and minced. The minced tissue was treated with collagenase P solution (9 μg/mL) neutralized by DMEM containing 10% FBS. Following settling of undigested tissue, the supernatant was collected and centrifuged at 490g for 1 minute. The pellet was treated with red blood cell lysis buffer (8.26 g NH4Cl, 1 g NaHCO3, 0.037 g Na2EDTA in 1,000 mL of distilled water) for 3 minutes, diluted with HBSS containing 6% FBS, and centrifuged at 490g for 1 minute. The resulting pellet was washed 2 times using HBSS containing 6% FBS (290g, 1 minute, and 190g, 1 minute) and resuspended in HBSS containing 2% FBS. The procedure was repeated 2 additional times on the undigested tissue. The collected suspension was sequentially filtered through a 500 μm Steel Basket-Strainer (pluriSelect) and Falcon 100 µm Cell Strainer (Corning). After centrifugation (190g, 1 minute), the pellet was resuspended in DMEM (containing 10% FBS, 100 U/mL penicillin, and 100 μg/mL streptomycin), seeded in a 48-well cell culture plate (7.5 × 10^5 cells/ well), and incubated in a cell culture incubator, overnight. Cell viability and attachment were determined by trypan blue staining.
# [3] = system: α cells of NOD mice islets; assay: F-actin signal in α cells of pancreatic slices of NOD mice; assay type: in vivo, mouse; settings: WCDD301-treated NOD mice; diabetic 47.14 ± 4.70, nondiabetic 79.14 ± 4.63
# Method: Pancreata of NOD mice (females, n = 3 per group) from nondiabetic, diabetic placebo-treated, and diabetic WCDD301-treated cohorts were excised; fixed in 10% buffered formalin for 5 days; and treated with ethanol 70% for 2 days before paraffin embedding. The paraffin-embedded tissue blocks were longitudinally sectioned in 5 μm slices and fixed on microscope slides. Following deparaffinization (through incubation in graded xylene, graded ethanol, and PBS), permeabilization (using 0.1% Triton X-100 in PBS), and background blocking (using 5% BSA solution containing 0.1% Tween 20), samples were incubated with primary antibodies (mouse anti-glucagon, Abcam, catalog ab10988; above-mentioned rabbit anti-EphA4), secondary antibodies (goat anti-mouse IgG Alexa Fluor 488; Invitrogen, catalog A-11001; goat anti-rabbit IgG Alexa Fluor 633, Invitrogen, catalog A-21070), SPY555-Actin (Cytoskeleton, catalog SC202), and DAPI. Image acquisition and analysis were performed as for dispersed islet cells. […] ROIs were manually drawn around each islet, background signal was removed by thresholding, and intensity of glucagon signal was determined and normalized by the islet surface area. To determine sizes of α cells per islet, ROIs were manually drawn around α cells in each islet. […]
# [4] = system: isolated islets of donors with T1D; assay: Glucagon secretion from isolated islets of donors with T1D; assay type: cell-based, human; settings: for Secretion of glucagon: isolated islets, T1D donors, one value per donor, Figure 2G
# Method: as §1, §2
smiles,measurement,setting,value
"CC(=O)OCC(N)(COC(C)=O)COC(C)=O [WCDD301, 2-(acetoxymethyl)-2-aminopropane-1,3-diyl diacetate]",Effect on insulin secretion,[1]; dispersed islet cells from donors with long-standing T1D,no effect on the minimal residual insulin secretion
same,Secretion of insulin,[1]; 1 mM glucose,0.0567 and 0.08
same,Secretion of insulin,[1]; 11 mM glucose,0.07 and 0.05
same,Glucagon-stimulated glucose output,"[2]; 100 nM glucagon, 3 μM WCDD301",did not alter glucagon-stimulated glucose output
same,Glucose output from hepatocytes (Figure 6G),"[2]; WCDD301 +, Glucagon +",15.2 and 14.9 and 17.2 and 21
same,F-actin signal within α cells,[3],74.50 ± 4.80 AU
same,Effect on glucagon secretion,[4]; islets from donors with long-standing T1D,reduced glucagon secretion
same,Secretion of glucagon,[4]; 1 mM glucose,39.575 and 41.23
same,Secretion of glucagon,[4]; 11 mM glucose,36.8 and 30.22
